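96-well plates; 48 h exposure; 5 concentrations. Endpoints by linear interpolation between flanking doses. Not reached: highest tested concentration assigned. TGI: total growth inhibition.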
Experiments:
Experiment in all cases: NCI anticancer screen, dose series, 48 h
[1] = tested on: 786-0 renal
[2] = tested on: A498 renal
[3] = tested on: A549 NSCLC
[4] = tested on: ACHN renal
[5] = tested on: CAKI-1 renal
[6] = tested on: CCRF-CEM leukemia
[7] = tested on: COLO 205 colon
[8] = tested on: DLD-1 colon
[9] = tested on: DMS 114 small cell lung
[10] = tested on: DMS 273 small cell lung
[11] = tested on: EKVX NSCLC
[12] = tested on: HCC-2998 colon
[13] = tested on: HCT-116 colon
[14] = tested on: HCT-15 colon
[15] = tested on: HL-60(TB) leukemia
[16] = tested on: HOP-62 NSCLC
[17] = tested on: HOP-92 NSCLC
[18] = tested on: HT29 colon
[19] = tested on: IGROV1 ovarian
[20] = tested on: K-562 leukemia
[21] = tested on: KM12 colon
[22] = tested on: KM20L2 colon
[23] = tested on: LOX IMVI melanoma
[24] = tested on: LXFL 529 NSCLC
[25] = tested on: M14 melanoma
[26] = tested on: M19-MEL melanoma
[27] = tested on: MALME-3M melanoma
[28] = tested on: MOLT-4 leukemia
[29] = tested on: NCI-H226 lung
[30] = tested on: NCI-H23 lung
[31] = tested on: NCI-H460 lung
[32] = tested on: NCI-H522 lung
[33] = tested on: OVCAR-3 ovarian
[34] = tested on: OVCAR-4 ovarian
[35] = tested on: OVCAR-5 ovarian
[36] = tested on: OVCAR-8 ovarian
[37] = tested on: RPMI-8226 leukemia
[38] = tested on: RXF 393 renal
[39] = tested on: RXF-631 renal
[40] = tested on: SF-268 CNS
[41] = tested on: SF-295 CNS
[42] = tested on: SF-539 CNS
[43] = tested on: SK-MEL-2 melanoma
[44] = tested on: SK-MEL-28 melanoma
[45] = tested on: SK-MEL-5 melanoma
[46] = tested on: SK-OV-3 ovarian
[47] = tested on: SN12C renal
[48] = tested on: SNB-19 CNS
[49] = tested on: SNB-75 CNS
[50] = tested on: SNB-78 CNS
[51] = tested on: SR leukemia
[52] = tested on: SW-620 colon
[53] = tested on: TK-10 renal
[54] = tested on: U251 CNS
[55] = tested on: UACC-257 melanoma
[56] = tested on: UACC-62 melanoma
[57] = tested on: UO-31 renal
[58] = tested on: XF 498 CNS

COC(=O)c1nc(N)[nH]c(=O)c1-c1ccc(Cl)cc1
TGI [1]: > 100 µM | TGI [2]: > 100 µM | TGI [3]: > 100 µM | TGI [4]: > 100 µM | TGI [5]: > 100 µM | TGI [6]: > 100 µM | TGI [7]: > 100 µM | TGI [8]: > 100 µM | TGI [9]: > 100 µM | TGI [10]: > 100 µM | TGI [11]: > 100 µM | TGI [12]: > 100 µM | TGI [13]: > 100 µM | TGI [14]: > 100 µM | TGI [15]: > 100 µM | TGI [16]: > 100 µM | TGI [17]: > 100 µM | TGI [18]: > 100 µM | TGI [19]: > 100 µM | TGI [20]: > 100 µM | TGI [21]: > 100 µM | TGI [22]: > 100 µM | TGI [23]: > 100 µM | TGI [24]: > 100 µM | TGI [25]: > 100 µM | TGI [26]: > 100 µM | TGI [27]: > 100 µM | TGI [28]: > 100 µM | TGI [29]: > 100 µM | TGI [30]: > 100 µM | TGI [31]: > 100 µM | TGI [32]: > 100 µM | TGI [33]: > 100 µM | TGI [34]: > 100 µM | TGI [35]: > 100 µM | TGI [36]: > 100 µM | TGI [37]: > 100 µM | TGI [38]: > 100 µM | TGI [39]: > 100 µM | TGI [40]: > 100 µM | TGI [41]: > 100 µM | TGI [42]: > 100 µM | TGI [43]: > 100 µM | TGI [44]: > 100 µM | TGI [45]: > 100 µM | TGI [46]: > 100 µM | TGI [47]: > 100 µM | TGI [48]: > 100 µM | TGI [49]: > 100 µM | TGI [50]: > 100 µM | TGI [51]: > 86.6 µM | TGI [52]: > 100 µM | TGI [53]: > 100 µM | TGI [54]: > 100 µM | TGI [55]: > 100 µM | TGI [56]: > 100 µM | TGI [57]: > 100 µM | TGI [58]: > 100 µM

Reference: PubChem BioAssay (NCI)
